Data from patent publication US8148410B2, “Thiophene derivatives as agonists of S1P1/EDG1” (Actelion Pharmaceuticals Ltd., priority 2007, dated 2012).

Each compound was assayed against recombinant human S1P1 receptor (Homo sapiens, UniProt P21453) (assay: GTPγS assay to determine EC50 values). Details: agonist concentration inducing 50% of maximal specific 35S-GTPγS binding; membranes of CHO cells expressing recombinant human S1P1.
Format: biochemical
Method: GTPγS Assay to Determine EC50 Values
GTPγS binding assays are performed in 96 well microtiter plates (Nunc, 442587) in a final volume of 200 μl, using membrane preparations of CHO cells expressing recombinant human S1P1 receptor. Assay conditions are 20 mM Hepes (Fluka, 54461), 100 mM NaCl (Fluka, 71378), 5 mM MgCl2 (Fluka, 63064), 0.1% BSA (Calbiochem, 126609), 1 μM GDP (Sigma, G-7127), 2.5% DMSO (Fluka, 41644), 50 pM ^35S-GTPγS (Amersham Biosciences, SJ1320). The pH is 7.4. Test compounds are dissolved and diluted in 100% DMSO and pre-incubated at room temperature for 30 min in 150 μl of the above assay buffer, in the absence of ^35S-GTPγS. After addition of 50 μl of ^35S-GTPγS, the assay is incubated for 1 h at rt. The assay is terminated by transfer of the reaction mixture to a Multiscreen plate (Millipore, MAHFC1H60) using a cell harvester from Packard Biosciences, and the plates are washed with ice-cold 10 mM Na2HPO4/NaH2PO4 (70%/30%), dried, sealed at the bottom and, after addition of 25 μl MicroScint20 (Packard Biosciences, order #6013621), sealed on the top. Membrane-bound ^35S-GTPγS is measured with a TopCount from Packard Biosciences.
Specific binding is determined by subtracting non-specific binding from maximal binding. Maximal binding is the amount of cpm bound to the Multiscreen plate in the presence of 10 μM of S1P. Non-specific binding is the amount of binding in the absence of an agonist in the assay.

Sequence of recombinant human S1P1 receptor (P21453 whole entry): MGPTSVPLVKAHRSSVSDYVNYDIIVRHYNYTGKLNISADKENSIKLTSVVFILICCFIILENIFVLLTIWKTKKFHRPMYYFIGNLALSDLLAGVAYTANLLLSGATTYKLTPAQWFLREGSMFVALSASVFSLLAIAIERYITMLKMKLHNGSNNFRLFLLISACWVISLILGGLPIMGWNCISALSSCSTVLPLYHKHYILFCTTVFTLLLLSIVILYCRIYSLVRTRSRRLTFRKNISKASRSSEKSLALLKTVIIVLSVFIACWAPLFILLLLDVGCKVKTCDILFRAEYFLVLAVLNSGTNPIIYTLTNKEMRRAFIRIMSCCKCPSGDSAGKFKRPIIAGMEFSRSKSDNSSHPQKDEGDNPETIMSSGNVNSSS

EC50 | Structure (SMILES)
3.8 nM | CNCc1sc(-c2nc(-c3cc(C)c(OCC(O)CNC(=O)CO)c(C)c3)no2)cc1C (racemic) [Example 21]
11 nM | Cc1cc(-c2nc(-c3cc(C)c(OCC(O)CNC(=O)CO)c(C)c3)no2)sc1CNC(C)C (racemic) [Example 24]
0.2 nM | CCCN(C)Cc1sc(-c2nc(-c3cc(C)c(OCC(O)CNC(=O)CO)c(C)c3)no2)cc1C (racemic) [Example 28]
10.2 nM | Cc1cc(-c2nc(-c3cc(C)c(OCC(O)CNC(=O)CO)c(C)c3)no2)sc1CN(C)CCO (racemic) [Example 30]
8.1 nM | CCN(CCO)Cc1sc(-c2nc(-c3cc(C)c(OCC(O)CNC(=O)CO)c(C)c3)no2)cc1C (racemic) [Example 31]
11.2 nM | Cc1cc(-c2nc(-c3cc(C)c(OCC(O)CNC(=O)CO)c(C)c3)no2)sc1CN1CCCC1 (racemic) [Example 32]
9.8 nM | Cc1cc(-c2nc(-c3cc(C)c(OCC(O)CNC(=O)CO)c(C)c3)no2)sc1CN1CCCCC1 (racemic) [Example 33]
12.1 nM | CCN(CC)Cc1sc(-c2nc(-c3cc(C)c(CCC(=O)O)c(C)c3)no2)cc1C [Example 44]
2.2 nM | CCc1cc(-c2noc(-c3cc(C)c(CN(C)CC)s3)n2)cc(C)c1OC[C@@H](O)CNC(=O)CO [Example 52]
2 nM | CCCCN(C)Cc1sc(-c2nc(-c3cc(C)c(OC[C@@H](O)CNC(=O)CO)c(CC)c3)no2)cc1C [Example 54]
2.5 nM | CCc1cc(-c2noc(-c3cc(C)c(CN(CC)CC)s3)n2)cc(C)c1OC[C@@H](O)CNC(=O)CO [Example 56]
2.8 nM | CCCN(CC)Cc1sc(-c2nc(-c3cc(C)c(OC[C@@H](O)CNC(=O)CO)c(CC)c3)no2)cc1C [Example 57]
3.3 nM | CCc1cc(-c2noc(-c3cc(C)c(CN(CC)C(C)C)s3)n2)cc(C)c1OC[C@@H](O)CNC(=O)CO [Example 58]
7 nM | CCCCN(CC)Cc1sc(-c2nc(-c3cc(C)c(OC[C@@H](O)CNC(=O)CO)c(CC)c3)no2)cc1C [Example 59]
2.6 nM | CCc1cc(-c2nc(-c3cc(C)c(OC[C@H](O)CO)c(CC)c3)no2)sc1CN(C)C [Example 81]
0.8 nM | CCCN(C)Cc1sc(-c2nc(-c3cc(C)c(OC[C@@H](O)CNC(=O)CO)c(CC)c3)no2)cc1CC [Example 84]
9.1 nM | CCCN(C)Cc1sc(-c2nc(-c3cc(C)c(CCC(=O)O)c(CC)c3)no2)cc1CC [Example 86]
0.6 nM | Cc1cc(-c2nc(-c3cc(C)c(OC[C@@H](O)CNC(=O)CO)c(C)c3)no2)sc1CN(C)C [Example 87, N-((2S)-3-{4-[5-(5-Dimethylaminomethyl-4-methyl-thiophen-2-yl)-[1,2,4]oxadiazol-3-yl]-2,6-dimethyl-phenoxy}-2-hydroxy-propyl)-2-hydroxy-acetamide]
0.5 nM | CCN(Cc1sc(-c2nc(-c3cc(C)c(OC[C@@H](O)CNC(=O)CO)c(C)c3)no2)cc1C)C(C)C [Example 92, N-{(2S)-3-[4-(5-{5-[(Ethyl-isopropyl-amino)-methyl]-4-methyl-thiophen-2-yl}-[1,2,4]oxadiazol-3-yl)-2,6-dimethyl-phenoxy]-2-hydroxy-propyl}-2-hydroxy-acetamide]

EC50 | Structure (SMILES)
17.3 nM | CCCN(C)Cc1sc(-c2nc(-c3cc(C)c(CCC(=O)NCC(=O)OC)c(CC)c3)no2)cc1C [Example 98]
8.6 nM | CCc1cc(-c2noc(-c3cc(C)c(CN(CC)CC)s3)n2)cc(C)c1CCC(=O)NCC(=O)O [Example 106]
10.5 nM | CCCN(C)Cc1sc(-c2nc(-c3cc(C)c(CCC(=O)NCCC(=O)O)c(CC)c3)no2)cc1C [Example 115]
2.1 nM | CCCN(CC)Cc1sc(-c2nc(-c3cc(C)c(CCC(=O)NCCC(=O)O)c(CC)c3)no2)cc1C [Example 119]
18.5 nM | CCc1cc(-c2noc(-c3cc(C)c(CN(CC)CC)s3)n2)cc(C)c1CCC(=O)NCCO [Example 136]
1.6 nM | CCc1cc(-c2nc(-c3cc(C)c(CN(CC)CC)s3)no2)cc(C)c1OC[C@@H](O)CNC(=O)CO [Example 149]
5.4 nM | CCc1cc(-c2nnc(-c3cc(C)c(CN(C)C)s3)o2)cc(C)c1OC[C@@H](O)CNC(=O)CO [Example 150, N-((2S)-3-{4-[5-(5-Dimethylaminomethyl-4-methyl-thiophen-2-yl)-[1,3,4]oxadiazol-2-yl]-2-ethyl-6-methyl-phenoxy}-2-hydroxy-propyl)-2-hydroxy-acetamide]
22 nM | CCN(CC)Cc1sc(-c2nc(-c3cc(C)c(N)c(Cl)c3)no2)cc1C [Example 187, 2-Chloro-4-[5-(5-diethylaminomethyl-4-methyl-thiophen-2-yl)-[1,2,4]oxadiazol-3-yl]-6-methyl-phenylamine]
2.5 nM | CCN(CC)Cc1sc(-c2nc(-c3cc(C)c(OC[C@@H](O)CNC(=O)CO)c(OC)c3)no2)cc1C [Example 194, N-((2S)-3-{4-[5-(5-Diethylaminomethyl-4-methyl-thiophen-2-yl)-[1,2,4]oxadiazol-3-yl]-2-methoxy-6-methyl-phenoxy}-2-hydroxy-propyl)-2-hydroxy-acetamide]
0.2 nM | CCN(CC)Cc1sc(-c2nc(-c3cc(C)c(OC[C@@H](O)CNC(=O)CO)c(Cl)c3)no2)cc1C [Example 195, N-((2S)-3-{4-[5-(5-Diethylaminomethyl-4-methyl-thiophen-2-yl)-[1,2,4]oxadiazol-3-yl]-2-chloro-6-methyl-phenoxy}-2-hydroxy-propyl)-2-hydroxy-acetamide]
13 nM | CCN(CC)Cc1sc(-c2nc(-c3ccc(OCC(O)CNC(=O)CO)cc3C)no2)cc1C (stereo not shown) [Example 196, N-(3-{4-[5-(5-Diethylaminomethyl-4-methyl-thiophen-2-yl)-[1,2,4]oxadiazol-3-yl]-3-methyl-phenoxy}-2-hydroxy-propyl)-2-hydroxy-acetamide]
2.1 nM | CCN(CC)Cc1sc(-c2nc(-c3cc(C)c(OC[C@@H](O)CO)c(Cl)c3)no2)cc1C [Example 198, (2S)-3-{2-Chloro-4-[5-(5-diethylaminomethyl-4-methyl-thiophen-2-yl)-[1,2,4]oxadiazol-3-yl]-6-methyl-phenoxy}-propane-1,2-diol]
18.4 nM | CCc1cc(-c2noc(-c3cc(C)c(CN(CC)CC)s3)n2)cc(C)c1OC[C@@H](O)CN1CCC(C(=O)O)C1 (stereo partly drawn) [Example 205, 1-((2S)-3-{4-[5-(5-Diethylaminomethyl-4-methyl-thiophen-2-yl)-[1,2,4]oxadiazol-3-yl]-2-ethyl-6-methyl-phenoxy}-2-hydroxy-propyl)-pyrrolidine-3-carboxylic acid]
9.6 nM | CCc1cc(-c2noc(-c3cc(C)c(CN(CC)CC)s3)n2)cc(C)c1OC[C@@H](O)CNCCO [Example 210]
1.7 nM | CCc1cc(-c2noc(-c3cc(C)c(CN(CC)CC)s3)n2)cc(C)c1OC[C@@H](O)CNC(CO)CO [Example 214]
3.4 nM | CCc1cc(-c2noc(-c3cc(C)c(CN(CC)CC)s3)n2)cc(C)c1OC[C@@H](O)CNCC(=O)O [Example 220]
6.2 nM | CCc1cc(-c2noc(-c3cc(C)c(CN(CC)CC)s3)n2)cc(C)c1OC[C@@H](O)CNC(=O)CCO [Example 223]
1.1 nM | CCc1cc(-c2noc(-c3cc(C)c(CN(CC)CC)s3)n2)cc(C)c1OC[C@@H](O)CNC(=O)CN [Example 225]
3.5 nM | CCc1cc(-c2noc(-c3cc(C)c(CN(CC)CC)s3)n2)cc(C)c1OC[C@@H](O)CNC(=O)CNC [Example 226]

What follows are compounds tested on circulating lymphocytes (assay: Assessment of in vivo efficacy: circulating lymphocytes after oral administration). Details: 3 h after oral administration of 10 mg/kg, compared to animals treated with vehicle only; mean ± SEM.
Parameters: species or system normotensive male Wistar rats

Structure (SMILES) | Lymphocyte counts
CCCN(C)Cc1sc(-c2nc(-c3cc(C)c(OCC(O)CNC(=O)CO)c(C)c3)no2)cc1C (racemic) [Example 28] | −68 ± 3%
CCc1cc(-c2noc(-c3cc(C)c(CN(CC)CC)s3)n2)cc(C)c1OC[C@@H](O)CNC(=O)CO [Example 56] | −68 ± 1%
